Assay results published in patent US10913757B2, “Hydroxycinnamic derivatives, methods and uses thereof” (UNIVERSIDADE DO PORTO, priority 2016, dated 2021).
Entries after “also recorded” stand apart in the source; their conditions may differ.

Key:
Assay type in all cases: cell-based, human
HepG2 cells [1] = test: Cytotoxicity screening in HepG2 cells, SRB assay; conditions: HepG2, 48 hour
Description: In an embodiment, and as an example, the cytotoxicity of two AntiOxCINs (AntiOxCIN4 and AntiOxCIN6) was assessed using monolayer cultures of human hepatocytes from hepatocellular carcinoma (HepG2) and SRB method (FIG. 8A). […] Remarkably, at concentrations higher than 2.5 μM AntiOxCIN6 inhibited cell proliferation, while at concentrations higher than 100 μM AntiOxCIN4 stimulated cell proliferation.
(§1) In an embodiment, the cytotoxicity profile of AntiOxCIN4 and AntiOxCIN6 was evaluated in human hepatocellular carcinoma HepG2 cells. Human hepatocellular carcinoma HepG2 cells were cultured in high-glucose medium composed by Dulbecco's modified Eagle's medium (DMEM; D5648) supplemented with sodium pyruvate (0.11 g/L), sodium bicarbonate (1.8 g/L) and 10% fetal bovine serum (FBS) and 1% of antibiotic penicillin-streptomycin 100× solution. Cells were maintained at 37° C. in a humidified incubator with 5% CO2. HepG2 cells were seeded at density of 4×10^4 cells/mL and grown for 24 hours before treatment.
In an embodiment the cytotoxicity screening was performed as follows: cells were placed on 48-well plate (2×10^4 cells/500 μL) and then were incubated during 48 hour with AntiOxCIN4 and AntiOxCIN6 concentrations ranging 25 μM to 500 μM or 0.5 μM to 25 μM, respectively. After incubation, sulforhodamine B (SRB) assay was used for cell density determination based on the measurement of cellular protein content. Briefly, after incubation, the medium was removed and wells rinsed with PBS (1×). Cells were fixed by adding 1% acetic acid in 100% methanol for at least 2 hours at −20° C. Later, the fixation solution was discarded and the plates were dried in an oven at 37° C. […] Finally, 200 μl of each supernatant was transferred in 96-well plates and optical density was measured at 540 nm. Data are means±SEM of four independent experiments and the results are expressed as percentage of control (control=100%), which represents the cell density without any treatment in the respective time point.

HepG2 cells [2] = test: Cellular antioxidant screening in HepG2 cells (FeSO4 or H2O2), SRB assay; conditions: pre-incubated 1 hour, AntiOxCIN4 100 μM, AntiOxCIN6 2.5 μM; for prevention of iron-induced HepG2 cytotoxicity (cell proliferation): 250 μM FeSO4 48 h; for prevention of hydrogen peroxide-induced HepG2 cytotoxicity (cell proliferation): 250 μM H2O2 48 h
Description: In an embodiment, as an example, the antioxidant cellular outline of AntiOxCIN4 and AntiOxCIN6 was assessed using monolayer cultures of human hepatocytes from hepatocellular carcinoma (HepG2) and two different oxidative stressors (250 μM FeSO4 or 250 μM H2O2) (FIG. 8B). […] The higher efficacy of AntiOxCIN4 is in agreement with the data attained from TAC assays (Table 1) and RLM assays (FIG. 4).
as §1
In an embodiment, the cellular antioxidant screening was performed as follows: cells were placed on 48-well plate (2×10^4 cells/500 μL) and pre-incubated with non-toxic concentrations of AntiOxCIN4 (100 μM) or AntiOxCIN6 (2.5 μM) for 1 hour. After the incubation time, cells were exposed to oxidative stress conditions by the addition of 250 μM FeSO4 or 250 μM H2O2 for 48 hours. At the end of incubation time, SRB assay was used for cell density determination as previously described. Data are means±SEM of four independent experiments. The results are expressed as percentage of control (control=100%), which represents the cell density without any treatment in the respective time point.

HepG2 cells [3] = test: Morphological alterations in HepG2 cells, vital epifluorescence microscopy (TMRM, Hoechst 33342); conditions: HepG2, 48 h; AntiOxCIN4 100 μM, AntiOxCIN6 2.5 μM, FIG. 8C; methanesulfonate
Description: In an embodiment, as an example, the morphological changes in mitochondrial network and nuclei chromatin condensation of AntiOxCIN4 and AntiOxCIN6 have been determined. HepG2 cells were treated with AntiOxCINs for 48 h and then incubated with the mitochondrialΔΨ-dependent fluorescent probes TMRM and DNA dye Hoechst 33342.
In an embodiment, the detection of morphological alterations, including chromatin condensation and mitochondrial polarization and distribution by vital epifluorescence microscopy was performed as follows: cells were placed in 6-well plates with a glass coverslip per well (8×10^4 cells/2 mL) and then treated with non-toxic concentrations of AntiOxCIN4 or AntiOxCIN6 for 48 hours. Thirty minutes prior the end of the incubation time, the mitochondrial network was stained with TMRM (100 nM) while nuclei were stained with Hoechst 33342 (1 μg/mL), to detect apoptotic chromatin condensation, in HBSS (NaCl 137 mM, KCl 5.4 mM, NaHCO3 4.2 mM, Na2HPO4 0.3 mM, KH2PO4 0.4 mM, CaCl2 1.3 mM, MgCl2 0.5 mM, MgSO4 0.6 mM, and D-glucose 5.6 mM, pH 7.4) at 37° C. under dark conditions. Glass coverslips were removed from the wells and placed on glass slides with a drop of mounting medium. The cell images were acquired using a Zeiss LSM 510Meta microscope and analysed with ImageJ software 1.49v. […]

SMILES | toxicity toward HepG2 cells (comparison) (HepG2 cells [1]) | concentration above which cell proliferation was inhibited (HepG2 cells [1]; FIG. 8A) | prevention of iron-induced HepG2 cytotoxicity (cell proliferation) (HepG2 cells [2]) | prevention of hydrogen peroxide-induced HepG2 cytotoxicity (cell proliferation) (HepG2 cells [2]) | nuclear morphology and mitochondrial polarization (HepG2 cells [3]) | concentration above which cell proliferation was stimulated (HepG2 cells [1]; FIG. 8A)
CS(=O)(=O)[O-].O=C(/C=C/c1ccc(O)c(O)c1)NCCCCCCCCCC[P+](c1ccccc1)(c1ccccc1)c1ccccc1 [AntiOxCIN6, (E)-(10-(3-(3,4-dihydroxyphenyl)acrylamido)decyl)triphenylphosphonium methanesulfonate] | higher toxicity than AntiOxCIN4 | higher than 2.5 μM | significantly prevented | significantly prevented | did not induce nuclear morphological changes neither mitochondrial depolarization; also recorded: did not disturb the normal nuclear morphology and mitochondrial polarization | –
CS(=O)(=O)[O-].O=C(/C=C/c1cc(O)c(O)c(O)c1)NCCCCCC[P+](c1ccccc1)(c1ccccc1)c1ccccc1 [AntiOxCIN4, (E)-(6-(3-(3,4,5-trihydroxyphenyl)prop-2-enamido)hexyl)triphenylphosphonium methanesulfonate] | – | – | significantly prevented | significantly prevented | did not induce nuclear morphological changes neither mitochondrial depolarization; also recorded: did not disturb the normal nuclear morphology and mitochondrial polarization | higher than 100 μM
